Measurements published in patent publication US10988478B1, “Pyrazolo[1,5a]pyrimidine derivatives as IRAK4 modulators” (Genentech, Inc., priority 2015, dated 2021).

Target: human IRAK4 (Homo sapiens (Human), UniProt Q9NWZ3)
Assay: IRAK4 kinase inhibition, Transcreener fluorescence polarization ADP assay
Assay type: biochemical
Details: recombinant full-length His6-IRAK4; 125 uM ATP; 90 min; Ki computed using ATP Km 642 uM
Protocol: Compounds were assayed for inhibition of human IRAK4 and IRAK1 catalytic activity using recombinant enzyme produced from insect cells. Full-length IRAK4 protein, carrying an N-terminal His6-Tag, was obtained from Life Technologies (Carlsbad, Calif., USA). The IRAK1 construct was produced internally and was comprised of IRAK1 residues Arg194 to Ser712, preceded by an NH2-terminal His6 tag and the coding sequence for glutathione-S-transferase.

Sequence of human IRAK4 (Q9NWZ3 whole entry): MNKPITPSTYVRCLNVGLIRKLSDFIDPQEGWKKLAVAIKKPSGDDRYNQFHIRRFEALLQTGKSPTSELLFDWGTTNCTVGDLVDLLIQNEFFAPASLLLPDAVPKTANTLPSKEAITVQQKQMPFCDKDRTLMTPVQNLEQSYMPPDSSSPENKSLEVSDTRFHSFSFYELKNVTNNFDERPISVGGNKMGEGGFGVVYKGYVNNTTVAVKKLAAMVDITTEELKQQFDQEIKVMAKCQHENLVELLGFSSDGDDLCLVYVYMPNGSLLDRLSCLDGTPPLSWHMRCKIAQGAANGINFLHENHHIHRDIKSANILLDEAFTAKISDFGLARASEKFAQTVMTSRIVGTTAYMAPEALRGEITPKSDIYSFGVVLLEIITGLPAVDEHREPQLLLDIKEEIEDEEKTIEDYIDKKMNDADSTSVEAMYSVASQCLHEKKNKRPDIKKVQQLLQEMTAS

| Structure (SMILES) | Ki [nM] |
| --- | --- |
| CC1(C)Cc2cc(NC(=O)c3cnn4cccnc34)c(OCc3cccnc3)cc2O1 [Example 297, N-(2,2-Dimethyl-6-(pyridin-3-ylmethoxy)-2,3-dihydrobenzofuran-5-yl)pyrazolo[1,5-α]pyrimidine-3-carboxamide] | 23 |
| CC1(C)Cc2cc(NC(=O)c3cnn4cccnc34)c(OCC3CC3)cc2O1 [Example 298, N-(6-(Cyclopropylmethoxy)-2,2-dimethyl-2,3-dihydrobenzofuran-5-yl)pyrazolo[1,5-α]pyrimidine-3-carboxamide] | 7 |
| CC1(COc2cc3c(cc2NC(=O)c2cnn4cccnc24)CC(C)(C)O3)COC1 [Example 299, N-(2,2-Dimethyl-6-((3-methyloxetan-3-yl)methoxy)-2,3-dihydrobenzofuran-5-yl)pyrazolo[1,5-α]pyrimidine-3-carboxamide] | 31 |
| Cn1cc(COc2cc3c(cc2NC(=O)c2cnn4cccnc24)CC(C)(C)O3)cn1 [Example 300, N-(2,2-Dimethyl-6-((1-methyl-1H-pyrazol-4-yl)methoxy)-2,3-dihydrobenzofuran-5-yl)pyrazolo[1,5-α]pyrimidine-3-carboxamide] | 7 |
| CC1(C)Cc2cc(NC(=O)c3cnn4cccnc34)c(OCc3ccncc3)cc2O1 [Example 301, N-(2,2-Dimethyl-6-(pyridin-4-ylmethoxy)-2,3-dihydrobenzofuran-5-yl)pyrazolo[1,5-α]pyrimidine-3-carboxamide] | 17 |
| CC1(C)Cc2cc(NC(=O)c3cnn4cccnc34)c(OCC(F)F)cc2O1 [Example 302, N-(6-(2,2-Difluoroethoxy)-2,2-dimethyl-2,3-dihydrobenzofuran-5-yl)pyrazolo[1,5-α]pyrimidine-3-carboxamide] | 11 |
| CN1CCCC(Oc2cc3c(cc2NC(=O)c2cnn4cccnc24)CC(C)(C)O3)C1 (stereo not drawn) [Example 304, N-(2,2-Dimethyl-6-((1-methylpiperidin-3-yl)oxy)-2,3-dihydrobenzofuran-5-yl)pyrazolo[1,5-α]pyrimidine-3-carboxamide] | 720 |
| CC1(C)Cc2cc(NC(=O)c3cnn4cccnc34)c(OC[C@@H]3CCNC(=O)C3)cc2O1 [Example 305] | 29 |
| CC1(C)Cc2cc(NC(=O)c3cnn4cccnc34)c(OC[C@H]3CCNC(=O)C3)cc2O1 [Example 306, (S)-N-(2,2-Dimethyl-6-((2-oxopiperidin-4-yl)methoxy)-2,3-dihydrobenzofuran-5-yl)pyrazolo[1,5-α]pyrimidine-3-carboxamide] | 52 |
| CC1(C)Cc2cc(NC(=O)c3cnn4cccnc34)c(OC[C@H]3CNC(=O)C3)cc2O1 [Example 307, N-[2,2-Dimethyl-6-[[(3R)-5-oxopyrrolidin-3-yl]methoxy]-3H-benzofuran-5-yl]pyrazolo[1,5-a]pyrimidine-3-carboxamide] | 32 |
| CC1(C)Cc2cc(NC(=O)c3cnn4cccnc34)c(OC[C@@H]3CNC(=O)C3)cc2O1 [Example 308, N-[2,2-Dimethyl-6-[[(3S)-5-oxopyrrolidin-3-yl]methoxy]-3H-benzofuran-5-yl]pyrazolo[1,5-a]pyrimidine-3-carboxamide] | 9 |
| CC1(C)Cc2cc(NC(=O)c3cnn4cccnc34)c(OCC3CCNCC3)cc2O1 [Example 309, N-(2,2-Dimethyl-6-(piperidin-4-ylmethoxy)-2,3-dihydrobenzofuran-5-yl)pyrazolo[1,5-α]pyrimidine-3-carboxamide] | 15 |
| C[C@@]1(CO)Cc2cc(NC(=O)c3cnn4cccnc34)c(OCC(F)F)cc2O1 [Example 310, (S)-N-(6-(2,2-difluoroethoxy)-2-(hydroxymethyl)-2-methyl-2,3-dihydrobenzofuran-5-yl)pyrazolo[1,5-a]pyrimidine-3-carboxamide] | 23 |
| C[C@]1(CO)Cc2cc(NC(=O)c3cnn4cccnc34)c(OCC(F)F)cc2O1 [Example 311, (R)-N-(6-(2,2-difluoroethoxy)-2-(hydroxymethyl)-2-methyl-2,3-dihydrobenzofuran-5-yl)pyrazolo[1,5-a]pyrimidine-3-carboxamide] | 10 |
| CC(C)(O)[C@]1(C)Cc2cc(NC(=O)c3cnn4cccnc34)c(O[C@H]3CC[C@@H](O)CC3)cc2O1 [Example 312, N-[(2S)-6-(cis-4-Hydroxycyclo-hexoxy)-2-(1-hydroxy-1-methyl-ethyl)-2-methyl-3H-benzofuran-5-yl]pyrazolo[1,5-a]pyrimidine-3-carboxamide] | 73 |
| CC(C)(O)[C@@]1(C)Cc2cc(NC(=O)c3cnn4cccnc34)c(O[C@H]3CC[C@@H](O)CC3)cc2O1 [Example 313, N-[(2R)-6-(cis-4-Hydroxycyclo-hexoxy)-2-(1-hydroxy-1-methyl-ethyl)-2-methyl-3H-benzofuran-5-yl]pyrazolo[1,5-a]pyrimidine-3-carboxamide] | 490 |
| CC(C)(O)[C@]1(C)Cc2cc(NC(=O)c3cnn4cccnc34)c(O[C@H]3CC[C@H](O)CC3)cc2O1 [Example 314, N-[(2S)-6-(trans-4-Hydroxycyclo-hexoxy)-2-(1-hydroxy-1-methyl-ethyl)-2-methyl-3H-benzofuran-5-yl]pyrazolo[1,5-a]pyrimidine-3-carboxamide] | 65 |
| CC(C)(O)[C@@]1(C)Cc2cc(NC(=O)c3cnn4cccnc34)c(O[C@H]3CC[C@H](O)CC3)cc2O1 [Example 315, N-[(2R)-6-(trans-4-Hydroxycyclo-hexoxy)-2-(1-hydroxy-1-methyl-ethyl)-2-methyl-3H-benzofuran-5-yl]pyrazolo[1,5-a]pyrimidine-3-carboxamide] | 520 |
| O=C(Nc1cc2c(cc1N1CCC(CO)CC1)O[C@](CO)(C(F)(F)F)C2)c1cnn2cccnc12 [Example 316, (R)-N-(2-(hydroxymethyl)-6-(4-(hydroxymethyl)piperidin-1-yl)-2-(trifluoromethyl)-2,3-dihydrobenzofuran-5-yl)pyrazolo[1,5-a]pyrimidine-3-carboxamide] | 5.2 |
| O=C(Nc1cc2c(cc1N1CCC(CO)CC1)O[C@@](CO)(C(F)(F)F)C2)c1cnn2cccnc12 [Example 317, (S)-N-(2-(hydroxymethyl)-6-(4-(hydroxymethyl)piperidin-1-yl)-2-(trifluoromethyl)-2,3-dihydrobenzofuran-5-yl)pyrazolo[1,5-a]pyrimidine-3-carboxamide] | 2.4 |
| O=C(Nc1cc2c(cc1N1CCC(F)(CO)CC1)O[C@@](CO)(C(F)(F)F)C2)c1cnn2cccnc12 [Example 319, (S)-N-(6-(4-fluoro-4-(hydroxymethyl)piperidin-1-yl)-2-(hydroxymethyl)-2-(trifluoromethyl)-2,3-dihydrobenzofuran-5-yl)pyrazolo[1,5-a]pyrimidine-3-carboxamide] | 3.1 |
| C[C@]1(CO)Cc2cc(NC(=O)c3cnn4cccnc34)c(N3CCC4(CC3)CNC4=O)cc2O1 [Example 320, (R)-N-(2-(hydroxymethyl)-2-methyl-6-(1-oxo-2,7-diazaspiro[3.5]nonan-7-yl)-2,3-dihydrobenzofuran-5-yl)pyrazolo[1,5-a]pyrimidine-3-carboxamide] | 4.6 |
| C[C@@]1(CO)Cc2cc(NC(=O)c3cnn4cccnc34)c(N3CCC4(CC3)CNC4=O)cc2O1 [Example 321, (S)-N-(2-(hydroxymethyl)-2-methyl-6-(1-oxo-2,7-diazaspiro[3.5]nonan-7-yl)-2,3-dihydrobenzofuran-5-yl)pyrazolo[1,5-a]pyrimidine-3-carboxamide] | 11 |
| CC1(CO)Cc2cc(NC(=O)c3cnn4cccnc34)c(N3CC4C(CO)C4C3)cc2O1 (stereo not drawn) [Example 322, N-(2-(hydroxymethyl)-6-(6-(hydroxymethyl)-3-azabicyclo[3.1.0]hexan-3-yl)-2-methyl-2,3-dihydrobenzofuran-5-yl)pyrazolo[1,5-a]pyrimidine-3-carboxamide] | 35 |
| CC(C)(O)C1CCN(c2cc3c(cc2NC(=O)c2cnn4cccnc24)C[C@@](C)(CO)O3)CC1 [Example 323, N-[(2S)-2-(Hydroxymethyl)-6-[4-(1-hydroxy-1-methyl-ethyl)-1-piperidyl]-2-methyl-3H-benzofuran-5-yl]pyrazolo[1,5-α]pyrimidine-3-carboxamide] | 4.2 |
| CC(C)(O)C1CCN(c2cc3c(cc2NC(=O)c2cnn4cccnc24)C[C@](C)(CO)O3)CC1 [Example 324, N-[(2R)-2-(Hydroxymethyl)-6-[4-(1-hydroxy-1-methyl-ethyl)-1-piperidyl]-2-methyl-3H-benzofuran-5-yl]pyrazolo[1,5-α]pyrimidine-3-carboxamide] | 4.8 |
| Cc1cnc2c(C(=O)Nc3cc4c(cc3N3CCN(CC(F)F)CC3)OC(C)(CO)C4)cnn2c1 (stereo not drawn) [Example 325, N-(6-(4-(2,2-Difluoroethyl)piperazin-1-yl)-2-(hydroxymethyl)-2-methyl-2,3-dihydrobenzofuran-5-yl)-6-methylpyrazolo[1,5-a]pyrimidine-3-carboxamide] | 6 |
| Cc1cnc2c(C(=O)Nc3cc4c(cc3N3CCC(F)(CO)CC3)OC(C)(CO)C4)cnn2c1 (stereo not drawn) [Example 328, N-(6-(4-Fluoro-4-(hydroxymethyl)-piperidin-1-yl)-2-(hydroxymethyl)-2-methyl-2,3-dihydrobenzofuran-5-yl)-6-methylpyrazolo[1,5-α]pyrimidine-3-carboxamide] | 2.7 |
| C[C@@]1(O)CCCN(c2cc3c(cc2NC(=O)c2cnn4cccnc24)C[C@](C)(CO)O3)CC1 [Example 329, N-((R)-6-((R)-4-hydroxy-4-methylazepan-1-yl)-2-(hydroxymethyl)-2-methyl-2,3-dihydrobenzofuran-5-yl)pyrazolo[1,5-a]pyrimidine-3-carboxamide] | 6 |
| C[C@]1(O)CCCN(c2cc3c(cc2NC(=O)c2cnn4cccnc24)C[C@](C)(CO)O3)CC1 [Example 330, N-((R)-6-((S)-4-hydroxy-4-methylazepan-1-yl)-2-(hydroxymethyl)-2-methyl-2,3-dihydrobenzofuran-5-yl)pyrazolo[1,5-a]pyrimidine-3-carboxamide] | 6 |
